Experimental data taken from patent US20090093491A1, “Diazine Azole Derivatives, Their Manufacture and Use as Pharmaceutical” (priority 2005, published 2009).

Tests used:
[1] = tested on: HEK293 cells; test: CellTiter-Glo Luminescent Cell Viability Assay in HEK293 cells; format: cell-based; conditions: Homo sapiens, 7 days (168 h) incubation, 3 μM to 0.00015 μM
Description: CellTiter-Glo™ Assay in HEK293 Cells
The CellTiter-Glo™ Luminescent Cell Viability Assay (Promega) is a homogeneous method of determining the number of viable cells in culture based on quantitation of the ATP present, which signals the presence of metabolically active cells.
HEK293 cells (human embryonic kidney cell line transformed by Adenovirus 5 fragments, ATCC-No. CRL 1573) are cultivated in Dulbecco's Modified Eagle Medium (DMEM) with Glutamax™ (Invitrogen, 31966-021), 5% Fetal Calf Serum (FCS, Sigma Cat-No. F4135 (FBS)), 100 Units/ml penicillin/100 μg/ml streptomycin (=Pen/Strep from Invitrogen Cat. No. 15140). For the assay the cells are seeded in 384 well plates, 5000 cells per well, in the same medium. The next day the test compounds are added in various concentrations ranging from 3 μM to 0.00015 μM (10 concentrations, 1:3 diluted). After 7 days the CellTiter-Glo™ assay is done according to the instructions of the manufacturer (CellTiter-Glo™ Luminescent Cell Viability Assay, from Promega). In brief: the cell-plate is equilibrated to room temperature for approximately 30 minutes and than the CellTiter-Glo™ reagent is added. The contents are carefully mixed for 15 minutes to induce cell lysis. After 45 minutes the luminescent signal is measured in Victor 2, (scanning multiwell spectrophotometer, Wallac).
1. day: • Medium: Dulbecco's Modified Eagle Medium (DMEM) with Glutamax™ (Invitrogen, 31966-021), 5% Fetal Calf Serum (FCS, Sigma Cat-No. F4135 (FBS)), Pen/Strep (Invitrogen Cat. No. 15140). • HEK293 (ATCC-No. CRL 1573): 5000 cells in 60 μl per well of 384 well plate (Greiner 781098, white plates) • Incubate 24 h at 37° C., 5% CO2 2. day: Induction (Substance testing):
In general the dilution steeps are 1:3 • a) Add 8 μl of 10 mM stock solution of compound to 72 μl DMSO • b) dilute 9× 1:3 (always 30 μl to 60 μl DMSO) in this DMSO dilution row (results in 10 wells with concentrations from 1000 μM to 0.06 μM) • c) dilute each concentration 1:4.8 (10 μl compound dilution to 38 μl medium) • d) dilute each concentration 1:10 (10 μl compound dilution to 90 μl medium) • e) add 10 μl of every concentration to 60 μl medium in the cell plate • resulting in final concentration of DMSO: 0.3% in every well • and resulting in final concentration of compounds from 3 μM to 0.00015 μM • Incubate 168 h (7 days) at 37° C., 5% CO2
• Add 30 μl CellTiter-Glo™ Reagent/well, • shake 15 minutes at room temperature • incubate further 45 minutes at room temperature without shaking.
• Victor 2 scanning multiwell spectrophotometer (Wallac), Luminescence mode • Determine IC50 with XL-fit (XLfit software (ID Business Solution Ltd., Guilford, Surrey, UK)).

Row | SMILES | melting point | IC50 [1]
1 | Fc1cc(C(F)(F)F)ccc1/C=C/c1nc(COc2ccc(CCCCn3cncn3)nn2)co1 [Example 4, 3-{2-[(E)-2-(2-Fluoro-4-trifluoromethyl-phenyl)-vinyl]-oxazol-4-ylmethoxy}-6-(4-[1,2,4]triazol-1-yl-butyl)-pyridazine] | 141 to 143 °C | 200 to 2000 nM
2 | Clc1ccc(/C=C/c2nc(COc3cnc(CCCCn4cncn4)cn3)co2)cc1 [Example 6, 2-{2-[(E)-2-(4-Chloro-phenyl)-vinyl]-oxazol-4-ylmethoxy}-5-(4-[1,2,4]triazol-1-yl-butyl)-pyrazine] | 157 to 158 °C | 1340 nM
3 | FC(F)(F)Oc1ccc(/C=C/c2nc(COc3ccc(CCCCn4ccnc4)nn3)co2)cc1 [Example 1, 3-(4-Imidazol-1-yl-butyl)-6-{2-[(E)-2-(4-trifluoromethoxy-phenyl)-vinyl]-oxazol-4-ylmethoxy}-pyridazine] | – | 200 to 2000 nM
4 | FC(F)(F)c1ccc(/C=C/c2nc(COc3cnc(CCCCn4cncn4)cn3)co2)cc1 [Example 5, 2-(4-[1,2,4]Triazol-1-yl-butyl)-5-{2-[(E)-2-(4-trifluoromethyl-phenyl)-vinyl]-oxazol-4-ylmethoxy}-pyrazine] | 147 to 148 °C | 200 to 2000 nM
5 | Clc1ccc(/C=C/c2nc(COc3ccc(CCCCn4cncn4)nn3)co2)cc1 [Example 2, 3-{2-[(E)-2-(4-Chloro-phenyl)-vinyl]-oxazol-4-ylmethoxy}-6-(4-[1,2,4]triazol-1-yl-butyl)-pyridazine] | 165 to 167 °C | 200 to 2000 nM
6 | FC(F)(F)c1ccc(/C=C/c2nc(COc3ccc(CCCCn4cncn4)nn3)co2)cc1 [Example 3, 3-(4-[1,2,4]Triazol-1-yl-butyl)-6-{2-[(E)-2-(4-trifluoromethyl-phenyl)-vinyl]-oxazol-4-ylmethoxy}-pyridazine] | 145 to 146 °C | 930 nM
7 | FC(F)(F)Oc1ccc(/C=C/c2nc(COc3cnc(CCCCn4cncn4)cn3)co2)cc1 [Example 7, 2-(4-[1,2,4]Triazol-1-yl-butyl)-5-{2-[(E)-2-(4-trifluoromethoxy-phenyl)-vinyl]-oxazol-4-ylmethoxy}-pyrazine] | 121 to 123 °C | –

Further lines, with some results ahead:

Row | melting point | SMILES | IC50 [1]
8 | 156 to 157 °C | FC(F)(F)c1ccc(/C=C/c2nc(COc3ncc(CCCCn4cccn4)cn3)co2)cc1 [Example 9, 5-(4-Pyrazol-1-yl-butyl)-2-{2-[(E)-2-(4-trifluoromethyl-phenyl)-vinyl]-oxazol-4-ylmethoxy}-pyrimidine] | –
9 | 149 to 150 °C | Clc1ccc(/C=C/c2nc(COc3ncc(CCCCn4cccn4)cn3)co2)cc1 [Example 10, 5-(4-Pyrazol-1-yl-butyl)-2-{2-[(E)-2-(4-chloro-phenyl)-vinyl]-oxazol-4-ylmethoxy}-pyrimidine] | 200 to 2000 nM
10 | 143 to 145 °C | FC(F)(F)Oc1ccc(/C=C/c2nc(COc3ncc(CCCCn4cccn4)cn3)co2)cc1 [Example 8, 5-(4-Pyrazol-1-yl-butyl)-2-{2-[(E)-2-(4-trifluoromethoxy-phenyl)-vinyl]-oxazol-4-ylmethoxy}-pyrimidine] | 200 to 2000 nM
